These results are taken from patent US9144569B2, “Methods of administering an aromatase inhibitor, prostaglandin and GnRH for regulating ovulation in cattle” (UNIVERSITY OF SASKATCHEWAN, priority 2010, dated 2015).

Holding throughout (assay type): in vivo, cattle
In assay [1] the test system is Hereford-cross beef heifers. The assay can be described thus: Example I: single intravenous dose of letrozole in heifers, ovarian ultrasonography (follicle and CL dynamics). How it is done: Hereford-cross beef heifers, 14 to 20 months of age and weighing between 295 and 450 kg, were chosen from a herd of 50 heifers maintained in outdoor corrals at the University of Saskatchewan Goodale Research Farm (52° North and 106° West). Heifers were fed alfalfa/grass hay and grain to gain approximately 1.3 Kg per day and had water ad libitum during the experimental period from July to October. Heifers were initially examined by transrectal ultrasonography (7.5 MHz linear-array transducer, Aloka SSD-900; Tokyo, Japan) to confirm that they were postpubertal by observing the presence of a CL [33].
(§1) Heifers in which a CL was detected during the initial examination were given […] cloprostenol (PGF, Estrumate™, Schering-Plough Animal Health, Pointe-Claire, QC, Canada) intramuscularly (im) to induce regression of the CL and to synchronize ovulation. Heifers were examined daily by transrectal ultrasonography to detect ovulation. Transvaginal ultrasound-guided follicular aspiration of follicles ≧5 mm was performed five to eight days after ovulation to synchronize wave emergence. Heifers were examined daily by transrectal ultrasonography to detect follicular wave emergence, which was expected 1 to 1.5 days after follicular ablation. Four days after follicular ablation (approximately 2.5 days after follicular wave emergence), and at the time follicular dominance becomes apparent, heifers were assigned randomly to the following treatment groups and given a single intravenous dose of 1) 500 μg/kg of letrozole (high dose group, n=9), 2) 250 μg/kg of letrozole (medium dose group, n=10), 3) 125 μg/kg of letrozole (low dose group, n=10), or 4) 20 ml of phosphate buffered saline (PBS control group, n=10). For practical purposes, the dose of letrozole was calculated based on an average weight of 400 kg for all heifers. The average oral dose used in women (2.5-5 mg per day for 5 days) was used to estimate the medium dose for cattle. The high and low doses were set as double and half the medium dose, respectively. The day of treatment was defined as Day 0. For intravenous injection, letrozole was prepared in 95% ethanol at a final concentration of 5 mg per ml, resulting in an injection volume of 10-40 ml. The experiment was performed in four replicates (n=2-3 per group per replicate) and each heifer was used only once.
The observations from ultrasound examination were recorded on a sketch sheet in which each ovary and its structures (CL and follicles ≧4 mm in diameter) were represented in size and location. Ovulation was defined as the disappearance of any follicle ≧8 mm between two consecutive daily examinations, and was confirmed by the subsequent development of a CL [33]. Follicular wave emergence was defined retrospectively as the day when the dominant follicle was first identified at a diameter of 4 or 5 mm. If the dominant follicle was not identified until it reached 6 or 7 mm, the previous day was considered day of the follicular wave emergence. The dominant follicle of a wave was defined as the largest antral follicle of that wave after deviation, and the first subordinate follicle as the second largest antral follicle of that wave. The day of onset of follicular and luteal regression was defined as the first day of an apparent constant decrease in follicular and luteal diameters, respectively.
(§2) Statistical analyses were done using the Statistical Analysis System software package (SAS Learning Edition 9.1, 2006; SAS Institute Inc., Cary, N.C., USA). Time-series hormone data, plasma letrozole concentration, and follicular diameter profiles were analyzed by repeated measures, using the PROC MIXED procedure. The main effects were treatment (high, medium and low dose, and control), time, and their interactions.

In another assay the test system is plasma LH. The assay can be described thus: Example I: plasma LH by double-antibody radioimmunoassay after single iv dose. Conditions: for plasma LH concentrations compared to saline-treated controls: doses combined. How it is done:
as §1, §2

Another assay relates to plasma FSH. Kind of assay: Example I: plasma FSH by double-antibody radioimmunoassay after single iv dose. Conditions: by 72 hours after single iv dose, doses combined; P<0.03. As to the method:
Heifers in which a CL was detected during the initial examination were given […] cloprostenol (PGF, Estrumate™, Schering-Plough Animal Health, Pointe-Claire, QC, Canada) intramuscularly (im) to induce regression of the CL and to synchronize ovulation. Heifers were examined daily by transrectal ultrasonography to detect ovulation. Transvaginal ultrasound-guided follicular aspiration of follicles ≧5 mm was performed five to eight days after ovulation to synchronize wave emergence. Heifers were examined daily by transrectal ultrasonography to detect follicular wave emergence, which was expected 1 to 1.5 days after follicular ablation. […] For practical purposes, the dose of letrozole was calculated based on an average weight of 400 kg for all heifers. […]
Statistical analyses were done using the Statistical Analysis System software package (SAS Learning Edition 9.1, 2006; SAS Institute Inc., Cary, N.C., USA). Time-series hormone data, plasma letrozole concentration, and follicular diameter profiles were analyzed by repeated measures, using the PROC MIXED procedure. […]

The next assay deals with plasma estradiol. Kind of assay: Example I: plasma estradiol by ELISA after single iv dose. The settings on record: doses combined. As to the method:
as §1, §2
In general terms: An ELISA detects its analyte on a solid surface through an enzyme-linked reagent.

Marks after values point to notes of the source that are not given here.

For `N#Cc1ccc(C(c2ccc(C#N)cc2)n2cncn2)cc1` [Letrozole, letrozole], the “number of heifers in which the extant dominant follicle ovulated” value in assay [1] (high dose 500 μg/kg iv) is 5/9; in assay [1] (low dose 125 μg/kg iv), 7/10; in assay [1] (medium dose 250 μg/kg iv) it was 5/10. Further, the “dominant follicle diameter profile compared to control heifers” value in assay [1] (single iv dose, all dose groups combined (n=29) vs saline controls, P<0.04) was “larger”. The “diameter to which the dominant follicle grew” value in assay [1] (single iv dose, dose groups combined, control 9.7±0.55, mean±SEM) was 11.0±0.32 mm. Besides, in assay [1] (single iv dose, doses combined, n=13, mean±SEM), the “Treatment to onset of regression of extant dominant follicle” value is given as 8.7 ± 0.47^a days. Moreover, in assay [1] (single iv dose, doses combined, n=16, mean±SEM), the “Treatment to ovulation of extant dominant follicle” value is on record as 9.0 ± 0.42^a days. For the same molecule, the “Treatment to wave emergence” value in assay [1] (single iv dose, low-, medium-, high-dose combined, n=29, mean±SEM) was 7.5 ± 0.27^a days. The “plasma LH concentrations compared to saline-treated controls” value with plasma LH (4-day period after single iv dose, P=0.01) is reported as “higher”; with plasma LH (first 12 hours following single iv dose, P=0.05), “higher”. In addition, the “duration of elevated LH levels after treatment” value in the assay with plasma LH (single iv dose) is “at least 4 days”. Also, the “time after letrozole at which endogenous LH began to rise” value in the assay on plasma LH (single iv dose) turned out to be 2 h. Moreover, the “plasma FSH concentrations compared to controls” value with plasma FSH is reported as “lower”. The plasma estradiol concentration worked out at 15.2 ± 3.01 pg/mL with plasma estradiol (0 hours (at treatment), mean±SEM) and 8.0 ± 1.51 pg/mL in the assay with plasma estradiol (24 hours after single iv dose, P=0.03 vs 0 hours). Besides, the “decrease of plasma estradiol from 0 to 24 hours after treatment” value with plasma estradiol (single iv dose) is roughly 50%. Further, the “mean plasma estradiol over the 4-day period after treatment compared to controls” value in the assay with plasma estradiol (single iv dose, P=0.06) is recorded as “tended to be higher”.
